{"source": "patent US9730894B2", "about": "“Stabilized HME composition with small drug particles” (BOARD OF REGENTS, THE UNIVERSITY OF TEXAS SYSTEM, priority 2004, dated 2017)", "key": {"[1]": {"assay": "Solubilization of ITZ by the carrier during hot-melt extrusion at 100° C. (DSC, SEM)", "conditions": "extruded at 100° C., confirmed by SEM and DSC", "procedure": "A Randcastle Microtruder RCP-0750 hot-melt extruder equipped with a 6 mm round die was operated at 15 RPM, 0.2-0.3 Drive Amps with an Extrusion Temperature of 100° C. to prepare the composition. All powders were blended in a v-shell blender prior to extrusion. Temperature zones were set as follows: zone 1: 90° C., zone 2: 95° C., zone 3: 100° C., die temperature 100° C. The powder blend was placed in a hopper that is located at the head of a vertical screw such that the material is flood fed by gravity. The residence time of the material in the extruder was approximately three minutes. The extrudate was sheared into approximately one foot sections after exiting the die and placed on an aluminum sheets and allowed to cool at ambient conditions.\nThe fine drug-containing particles and compositions containing them were analyzed by scanning electron microscopy using a Hitachi S-4500 scanning electron microscope. Samples were coated with Au/Pd and an accelerating voltage of 5 kV was used.\nChanges in the degree of crystallization of the fine drug-containing particles, either neat or dispersed within a hot-melt extruded composition, were determined and quantified by differential scanning calorimetry. A TA Instruments Model 2920 calorimeter was used to conduct the analyses."}, "[2]": {"assay": "Dissolution test, USP 27 Type II paddle apparatus", "assay_type": "physicochemical", "conditions": "900 ml 0.1 N HCl, 37° C., 50 rpm, equivalent to 10 mg active", "protocol": "The dissolution media was 900 ml of 0.1 N HCl, and was de-aerated with helium for approximately 15 minutes before each dissolution test. In all cases where not otherwise specified, the equivalent to 10 mg of the active ingredient was added to each dissolution vessel."}}, "data": [{"smiles": "CCC(C)n1ncn(-c2ccc(N3CCN(c4ccc(OCC5COC(Cn6cncn6)(c6ccc(Cl)cc6Cl)O5)cc4)CC3)cc2)c1=O", "note": "(centres unmarked) [bulk ITZ, itraconazole]", "values": [{"measurement": "Solubility of itraconazole in PEO when extruded", "setting": "[1]", "value": "substantially insoluble"}, {"measurement": "ITZ drug release (dissolved) in 10 minutes (FIG. 12)", "setting": "[2]", "value": "less than 1%"}]}]}
